EP4752142A1, “5-HT2A RECEPTOR AGONIST, AND PREPARATION METHOD THEREFOR AND USE THEREOF” (Innovstone Therapeutics Limited, priority 2023, dated 2025)
pKi: −log10 of the molar value.

What follows are compounds tested against 5-HT2A receptor (Homo sapiens, UniProt P28223) (assay: 5-HT2A receptor isotope competition affinity assay). Settings: not given.
Chain of 5-HT2A receptor (P28223 whole entry): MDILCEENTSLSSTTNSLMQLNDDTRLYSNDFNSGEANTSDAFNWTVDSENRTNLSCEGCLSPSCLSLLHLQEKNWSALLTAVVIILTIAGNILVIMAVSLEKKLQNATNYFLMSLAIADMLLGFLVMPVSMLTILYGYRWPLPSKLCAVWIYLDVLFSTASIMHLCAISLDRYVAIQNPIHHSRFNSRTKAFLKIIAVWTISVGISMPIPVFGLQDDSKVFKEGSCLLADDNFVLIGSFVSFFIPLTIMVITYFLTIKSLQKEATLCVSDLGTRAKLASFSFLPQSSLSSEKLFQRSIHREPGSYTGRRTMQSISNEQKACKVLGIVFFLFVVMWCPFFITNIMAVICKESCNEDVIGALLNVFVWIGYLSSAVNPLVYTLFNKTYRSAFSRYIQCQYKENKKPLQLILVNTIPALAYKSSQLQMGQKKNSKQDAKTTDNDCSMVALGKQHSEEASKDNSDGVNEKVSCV
Assay type: binding
Experimental: A radiolabeled ligand (agonist or antagonist) incubated with receptor protein could form a receptor-ligand complex. An added test compound could compete with the isotopically labeled ligand for the receptor binding, eventually forming a relative steady-state equilibrium. The affinity of the test compound for the receptor was indirectly evaluated by measuring the dissociation of the isotopically labeled ligand from the receptor.
A 100x serial gradient dilution of compounds was prepared in DMSO, starting from 1 mM with 4-fold serial dilutions, resulting in 10 concentration points. Using a pipettor, 1 µL of each gradient concentration of the test compound (final concentration starting at 10 µM, 4-fold serial dilutions, 10 concentration points) was transferred to a 96-well assay plate, to each well of which 49 µL of 5-HT2A receptor protein (102 µg/mL, prepared in an assay buffer: 50 mM Tris-HCl, pH 7.4) had been added in advance (final concentration 5 µg/well). This was followed by the addition of 50 µL of isotopically labeled [^3H]-Ketanserin (2 nM, 2× final concentration, prepared in the assay buffer). The plate was sealed and incubated on a shaker at room temperature for 1 hour. The reaction mixture was filtered through a Unifilter-96 GF/C filter plate pre-treated with 0.3% PEI. The filter plate was washed with a precooled (4°C) assay buffer and then dried in an incubator at 50°C. A scintillation liquid was added, and the plate was read using a MicroBeta2 instrument. The percentage inhibition was calculated using the equation: %Inhibition=(CountHigh Signal Control-CountSample)/(CountHigh Signal Control-CountLow Signal Control)*100. A four-parameter logistic fit was used to calculate the IC50 value. High Signal Control: No compound group (the same volume of DMSO substituted). Low Signal Control: Ketanserin group (non-isotopically labeled, 2× final concentration). Table 1: Results of 5-HT2A receptor isotope competition affinity assay, Ki Values
`COc1ccccc1CCCN1CCOC(c2c[nH]c3ccccc23)C1` (centres unmarked) [Compound 29, 2-(1H-indol-3-yl)-4-(3-(2-methoxyphenyl)propyl)morpholine] was tested, and the pKi was > 7.00. `COc1ccccc1CCCN1CCOC(c2c[nH]c3ccncc23)C1` (centres unmarked) [Compound 34, 4-(3-(2-methoxyphenyl)propyl)-2-(1H-pyrrolo[3,2-c]pyridin-3-yl)morpholine] was tested, and the pKi was > 7.00. For `COc1ccccc1CCCN1CCOC(c2n[nH]c3ccccc23)C1` (centres unmarked) [Compound 37, 3-(4-(3-(2-methoxyphenyl)propyl)morpholin-2-yl)-1H-indazole], the pKi was > 7.00. With `c1ccc2c(C3CCN(CCCc4nncs4)C3)c[nH]c2c1` (centres unmarked) [Compound 50, 3-(1-(3-(1,3,4-thiadiazol-2-yl)propyl)pyrrolidin-3-yl)-1H-indole] the pKi was > 7.00. In the case of `Cn1cc(CCCN2CCC(c3n[nH]c4ccccc34)C2)cn1` (centres unmarked) [Compound 69, 3-(1-(3-(1-methyl-1H-pyrazol-4-yl)propyl)pyrrolidin-3-yl)-1H-indazole], the pKi was > 7.00.

Same assay, conditions: competition with [3H]-Ketanserin, 1 hour, room temperature; read-out: 5-HT2A receptor/Ki
`COc1ccccc1CCN1CCC(c2c[nH]c3cccc(O)c23)C1` (centres unmarked) [Compound 1, 3-(1-(2-(2-methoxyphenyl)ethyl)pyrrolidin-3-yl)-1H-indol-4-ol] was tested, and the pKi was > 7.00. In the case of `COc1ccccc1CCCN1CCCC(c2c[nH]c3cccc(O)c23)C1` (centres unmarked) [Compound 4, 3-(1-(3-(2-methoxyphenyl)propyl)piperidin-3-yl)-1H-indol-4-ol], the pKi was > 7.00. In the case of `COc1ccccc1CCCN1CCC(c2c[nH]c3ccccc23)C1` (centres unmarked) [Compound 5, 3-(1-(3-(2-methoxyphenyl)propyl)pyrrolidin-3-yl)-1H-indole], the pKi was > 7.00. `COc1ccccc1CCCN1CCC(n2ccc3cc(F)ccc32)C1` (centres unmarked) [Compound 7] was tested, and the pKi was > 7.00. For `COc1ccccc1CCCN1CCC(c2c[nH]c3cccc(F)c23)C1` (centres unmarked) [Compound 8], the pKi was > 7.00. With `COc1ccccc1CCCN1CCC(c2c[nH]c3cccc(OC)c23)C1` (centres unmarked) [Compound 9] the pKi was > 7.00. With `COc1ccccc1C1CCN(CCc2c[nH]c3cccc(O)c23)CC1` [Compound 10, 3-(2-(4-(2-methoxyphenyl)piperidin-1-yl)ethyl)-1H-indol-4-ol] the pKi was > 7.00. `COc1ccccc1CCCN1CC(c2c[nH]c3ccccc23)C1` [Compound 11, 3-(1-(3-(2-methoxyphenyl)propyl)azetidin-3-yl)-1H-indole] was tested, and the pKi was > 7.00. For `COc1ccccc1CCCN1C2CCC1C(c1c[nH]c3ccccc13)C2` (centres unmarked) [Compound 16, 3-(7-(3-(2-methoxyphenyl)propyl)-7-azabicyclo[2.2.1]heptan-2-yl)-1H-indole], the pKi was > 7.00. In the case of `COc1ccccc1CCCN1CCC(c2c[nH]c3ncccc23)C1` (centres unmarked) [Compound 22], the pKi was > 7.00. For `COc1ccccc1CCCN1CCC(c2n[nH]c3ccccc23)C1` (centres unmarked) [Compound 23], the pKi was > 7.00. With `COc1ccccc1CCCN1CCC(c2n[nH]c3ccncc23)C1` (centres unmarked) [Compound 30] the pKi was > 7.00. For `Oc1cccc2[nH]cc(C3CN(CCCc4cc(F)ccc4F)CCO3)c12` (centres unmarked) [Compound 40], the pKi was > 7.00. `c1ccc2c(C3CCN(CCCc4ncsn4)C3)c[nH]c2c1` (centres unmarked) [Compound 55, 3-(1-(3-(1,2,4-thiadiazol-3-yl)propyl)pyrrolidin-3-yl)-1H-indole] was tested, and the pKi was > 7.00. With `Cn1cc(CCCN2CCC(c3c[nH]c4ccccc34)C2)cn1` (centres unmarked) [Compound 57, 3-(1-(3-(1-methyl-1H-pyrazol-4-yl)propyl)pyrrolidin-3-yl)-1H-indole] the pKi was > 7.00. For `Cn1cc(CCCN2CCC(n3ccc4cc(F)ccc43)C2)cn1` (centres unmarked) [Compound 61], the pKi was > 7.00. For `Cn1cc(CCCN2CCC(c3noc4cc(F)ccc34)C2)cn1` (centres unmarked) [Compound 68], the pKi was > 7.00. For `CC(C)n1cnnc1CCCN1CCC(c2c[nH]c3ccccc23)C1` (centres unmarked) [Compound 79], the pKi was > 7.00. For `CC(C)n1cnnc1CCCN1CCC(n2ccc3cc(F)ccc32)C1` (centres unmarked) [Compound 80], the pKi was > 7.00. `Fc1ccc2c(C3CCN(CCCc4nncn4CC(F)(F)F)C3)c[nH]c2c1` (centres unmarked) [Compound 83] was tested, and the pKi was > 7.00. With `CC(C)n1cnnc1CCCN1CCC(c2c[nH]c3cc(F)ccc23)C1` (centres unmarked) [Compound 84] the pKi was > 7.00. For `Cc1nnc(CCCN2CCC(c3c[nH]c4ccccc34)C2)n1C(C)C` (centres unmarked) [Compound 86, 3-(1-(3-(5-methyl-4-(propan-2-yl)-4H-1,2,4-triazol-3-yl)propyl)pyrrolidin-3-yl)-1H-indole], the pKi was > 7.00. `CC1CN(CCCc2nncn2C(C)C)CC1c1c[nH]c2cc(F)ccc12` (centres unmarked) [Compound 90, 6-fluoro-3-(4-methyl-1-(3-(4-(propan-2-yl)-4H-1,2,4-triazol-3-yl)propyl)pyrrolidin-3-yl)-1H-indole] was tested, and the pKi was > 7.00. In the case of `CC(CCc1nncn1C(C)C)N1CCC(c2c[nH]c3cc(F)ccc23)C1` (centres unmarked) [Compound 91], the pKi was > 7.00. With `Fc1ccc2c(C3CCN(CCCc4nncn4C4CCC4)C3)c[nH]c2c1` (centres unmarked) [Compound 92] the pKi was > 7.00. `Fc1ccc2c(C3CCN(CCCc4nncn4C4CC4)C3)c[nH]c2c1` (centres unmarked) [Compound 99] was tested, and the pKi was > 7.00. `CC(C)n1c(CCCN2CCC(c3c[nH]c4cc(F)ccc34)C2)nnc1C(F)(F)F` (centres unmarked) [Compound 100] was tested, and the pKi was > 7.00. `Cc1nnc(CCCN2CCC(n3ccc4cc(F)ccc43)C2)n1C(C)C` (centres unmarked) [Compound 103] was tested, and the pKi was > 7.00. For `COc1ncncc1CCCN1CCC(c2c[nH]c3ccccc23)C1` (centres unmarked) [Compound 132, 3-(1-(3-(4-methoxypyrimidin-5-yl)propyl)pyrrolidin-3-yl)-1H-indole], the pKi was > 7.00. `Oc1cccc2[nH]cc(C3CCN(CCc4coc5c(F)cccc45)C3)c12` (centres unmarked) [Compound 135] was tested, and the pKi was > 7.00. `CC(C)c1nnc2n1CCC(CN1CCC(c3c[nH]c4ccccc34)C1)C2` (centres unmarked) [Compound 139, 7-((3-(1H-indol-3-yl)pyrrolidin-1-yl)methyl)-3-isopropyl-5,6,7,8-tetrahydro-[1,2,4]triazolo[4,3-a]pyridine] was tested, and the pKi was > 7.00. In the case of `c1ccc2c(c1)CC(CN1CCC(c3c[nH]c4ccncc34)C1)CO2` (centres unmarked) [Compound 141], the pKi was > 7.00. In the case of `c1ccc2c(C3CCN(CCc4nnc5sccn45)C3)c[nH]c2c1` (centres unmarked) [Compound 143, 3-(2-(3-(1H-indol-3-yl)pyrrolidin-1-yl)ethyl)thiazolo[2,3-c][1,2,4]triazole], the pKi was > 7.00. `c1ccc2c(C3CCN(CC4CCn5c(nnc5C5CC5)C4)C3)c[nH]c2c1` (centres unmarked) [Compound 145, 3-(1-((3-cyclopropyl-SH,6H,7H,8H-[1,2,4]triazolo[4,3-a]pyridine-7-yl)methyl)pyrrolidin-3-yl)-1H-indole] was tested, and the pKi was > 7.00. With `COc1cccc2nnc(CCN3CCC(c4c[nH]c5cc(F)ccc45)C3)n12` (centres unmarked) [Compound 147, 6-fluoro-3-(1-(2-(5-methoxy-(1,2,4)triazolo(4,3-a)pyridin-3-yl)ethyl)pyrrolidin-3-yl)-1H-indole] the pKi was > 7.00. With `COc1ccc(F)c2nnc(CCN3CC(c4c[nH]c5cc(F)ccc45)C3)n12` [Compound 148, 6-fluoro-3-(1-(2-(8-fluoro-5-methoxy-(1,2,4)triazolo(4,3-a)pyridin-3-yl)ethyl)azetidin-3-yl)-1H-indole] the pKi was > 7.00. With `Fc1ccc2c(C3CCN(CCc4nnc5c(F)cccn45)C3)c[nH]c2c1` (centres unmarked) [Compound 149, 6-fluoro-3-(1-(2-(8-fluoro-(1,2,4)triazolo[4,3-a]pyridin-3-yl)ethyl)pyrrolidin-3-yl)-1H-indole] the pKi was > 7.00. `Oc1cccc2[nH]cc(C3CCN(CCCc4ncon4)C3)c12` (centres unmarked) [Compound 173, 3-(1-(3-(1,2,4-oxadiazol-3-yl)propyl)pyrrolidin-3-yl)-1H-indol-4-ol] was tested, and the pKi was > 7.00. With `CC(C)c1nc(CCCN2CCC(c3c[nH]c4cccc(O)c34)C2)no1` (centres unmarked) [Compound 174, 3-(1-(3-(5-isopropyl-1,2,4-oxadiazol-3-yl)propyl)pyrrolidin-3-yl)-1H-indol-4-ol] the pKi was > 7.00. In the case of `CC(C)c1nc(CCCN2CCC(c3n[nH]c4ccccc34)C2)no1` (centres unmarked) [Compound 175, 3-(3-(-3-(1H-indazol-3-yl)pyrrolidin-1-yl)propyl)-5-isopropyl-1,2,4-oxadiazole], the pKi was > 7.00. `c1ccc2c([C@H]3CCN(CCCn4nccn4)C3)c[nH]c2c1` [Compound 177, (R)-3-(1-(3-(2H-1,2,3-triazol-2-yl)propyl)pyrrolidin-3-yl)-1H-indole] was tested, and the pKi was > 7.00. With `c1ccc2c([C@@H]3CCN(CCCn4nccn4)C3)c[nH]c2c1` [Compound 178, (S)-3-(1-(3-(2H-1,2,3-triazol-2-yl)propyl)pyrrolidin-3-yl)-1H-indole] the pKi was > 7.00. In the case of `C1=C(c2c[nH]c3ccccc23)CN(CCCn2nccn2)CC1` [Compound 179, 3-(1-(3-(2H-1,2,3-triazol-2-yl)propyl)-1,2,5,6-tetrahydropyridin-3-yl)-1H-indole], the pKi was > 7.00. With `Oc1cccc2[nH]cc([C@H]3CCN(CCCn4nccn4)C3)c12` [Compound 181, (R)-3-(1-(3-(2H-1,2,3-triazol-2-yl)propyl)pyrrolidin-3-yl)-1H-indol-4-ol] the pKi was > 7.00. `Cc1nn(CCCN2CC[C@H](c3c[nH]c4cccc(O)c34)C2)nc1C` [Compound 185, (R)-3-(1-(3-(4,5-dimethyl-2H-1,2,3-triazol-2-yl)propyl)pyrrolidin-3-yl)-1H-indol-4-ol] was tested, and the pKi was > 7.00.
